The subject of series [1] is RSVA 1211. Particulars: human respiratory syncytial virus.
A short description of series [2]: Antiviral panel: cytotoxicity. It is filed as cell-based. Conditions: human, Huh-7 cells with HCV GT1b replicon; Huh-7, GT1b replicon.
The subject of series [3] is RSV A2 protein expression. The series is described as follows: Western blotting of RSV proteins in RSV A2-infected HEp-2 cells. Particulars: HEp-2, 3 days postinfection. It is filed as cell-based, respiratory syncytial virus. Here is the method: HEp-2 cells were seeded in 6-well plates at a density of 3 × 10^5/well (2 ml/well) 24 h before experimentation and were then treated with compounds (10 μl/well), simultaneously infected with RSV A2 (MOI, 1), and incubated for 72 h. Cells were washed with PBS and collected by scraping in 200 μl of PBS with protease and phosphatase inhibitor cocktail (PPI; Sigma-Aldrich; MSSAFE-1VL 1× in PBS), followed by two further washes with 200 μl of PBS, and the cell suspension was centrifuged to pellet. Radioimmunoprecipitation assay (RIPA) buffer (50 μl) containing 50 mM Tris-HCl (pH 7.4), 150 mM NaCl, 1% (vol/vol) NP-40, 0.25% (wt/vol) sodium deoxycholate, and PPI was applied to the cell pellet, which was vortexed and incubated for 30 min, on ice with further cell disruptions every 10 min. The protein concentration of the supernatant after centrifugation was determined by Bradford assay. The lysate containing 30 μg of protein was separated by electrophoresis on a 4 to 12% gradient bis-Tris polyacrylamide gel (Life Technologies; NP0335BOX) and then transferred to a nitrocellulose membrane using the iBlot gel transfer device (Life Technologies). The membrane was blocked with blocking buffer (TBS/T; 20 mM TBS and 0.1% Tween 20 with 5% skim milk) for 1 h at RT and incubated with anti-RSV F protein antibody (Abcam ab43812; 1:1,000) overnight at 4°C for F protein detection. […]
(In western blotting, separated proteins are transferred to a membrane and probed.)

A further series deals with human polymerase α (Homo sapiens, UniProt P09884). The series is described as follows: Human polymerase inhibition in vitro (data not shown). It is filed as biochemical. Particulars: up to 1 μM.
A further series has as its system RSV A2. The series is described as follows: RSV A2 infection of ALI-cultured human airway epithelial cells, plaque assay of apical wash. Conditions: MOI 0.01. It is filed as cell-based, respiratory syncytial virus. Here is the method: On the day of infection (day 0), the apical surface of each insert was washed once with 300 μl of sterile PBS and the inserts were then transferred to new 24-well plates containing 780 μl of fresh MucilAir culture medium (Epithelix Sàrl). […] The virus inoculum was removed with a pipette and inserts were washed twice with 300 μl of sterile PBS. A day 0 sample was harvested by adding 300 μl of sterile PBS to the apical surface of each well for 5 min. The 300-μl sample was then removed and transferred to 0.5-ml tubes containing 100 μl of 50% sucrose dissolved in PBS, and the tubes were stored at -80°C. This harvesting procedure was repeated daily until day 7. PC786 was dosed apically onto MucilAir inserts. […] The dosing regimen was performed daily on day 0 to day 6 following each sample collection. On day 5, the basal medium was removed from every well and replenished with fresh MucilAir culture medium as a necessary maintenance step for ALI culture cells. Virus titer in the apical wash samples was determined by plaque assay. […] Cells were washed twice with PBS before 150 μl of secondary antibody (goat anti-mouse HRP conjugate [Dako Ltd., Ely, UK; P044701-2]), diluted 1:400 in blocking buffer, was added to cells for 1 h at RT, with shaking. […] Each well received 150 μl of development substrate (sigmaFAST […]; Sigma-Aldrich) until plaques were visible. Plaques were counted by eye and confirmed using light microscopy.

Another series relates to RSVB 1276. Conditions: human respiratory syncytial virus.
The test system of series [4] is RSVA 1211. The series is described as follows: microbe, parasite or virus in culture. Format: cell-based. Particulars: human respiratory syncytial virus, RSVA 1211, clinical.
For a further series, the system named is RSV A Long. The series is described as follows: microbe, parasite or virus in culture. Format: cell-based, respiratory syncytial virus.
The test system of a further series is RSVA 492. The series is described as follows: microbe, parasite or virus in culture. Format: cell-based. Conditions: human respiratory syncytial virus, RSVA 492, clinical.
For series [5], the target named is minigenome construct comprising the L protein, M2-1, N, and P of RSV A2 (Human respiratory syncytial virus A, UniProt P28887). The series is described as follows: cell-based.
The test system of another series is RSV A 1998/3-2. The series is described as follows: CPE 2, neutral red 96-well CPE assay in HEp-2. It is filed as cell-based. Particulars: human respiratory syncytial virus. The protocol:
(§1) For RSV A 2001/3-12, 1998/3-2, and USU⃥v1225, CPE was induced in HEp-2 cells for 7 days and the plates were then stained with neutral red dye for approximately 2 h. The intracellular incorporated dye was extracted in 50:50 Sorensen citrate buffer-ethanol and the absorbance read on a spectrophotometer. The optical density (OD) of test wells was converted to percentage of cell and virus controls. […] The virus inocula were ∼63 50% cell culture infectious doses (CCID50) per well for 2001/3-12, ∼40 CCID50/well for 1998/3-2, and ∼32 CCID50/well for USU\v1225. This assay was conducted in Utah State University (Logan, UT).

Another series concerns RSV A 2001/3-12. The series is described as follows: CPE 2, neutral red 96-well CPE assay in HEp-2. Format: cell-based. Particulars: human respiratory syncytial virus. Here is the method: as §1
For a further series, the system named is RSV A USU\v1225. The series is described as follows: CPE 2, neutral red 96-well CPE assay in HEp-2. It is filed as cell-based. Particulars: human respiratory syncytial virus. The protocol:
as §1

[6] abbreviates: HEp-2, read-out: RSV titre in supernatant IC50 (0.3 Log PFUe reduction) (converted).
Setting [7] is: HEp-2, read-out: RSV titre in supernatant IC90 (1 Log PFUe reduction) (converted).

These results are taken from article PMC5571287 (Antimicrobial Agents and Chemotherapy, 2017).

Read-outs that look alike come from different tables or passages of the source. Bounds are passed on as bounds.

minigenome construct comprising the L protein, M2-1, N, and P of RSV A2, sequence (P28887 whole entry): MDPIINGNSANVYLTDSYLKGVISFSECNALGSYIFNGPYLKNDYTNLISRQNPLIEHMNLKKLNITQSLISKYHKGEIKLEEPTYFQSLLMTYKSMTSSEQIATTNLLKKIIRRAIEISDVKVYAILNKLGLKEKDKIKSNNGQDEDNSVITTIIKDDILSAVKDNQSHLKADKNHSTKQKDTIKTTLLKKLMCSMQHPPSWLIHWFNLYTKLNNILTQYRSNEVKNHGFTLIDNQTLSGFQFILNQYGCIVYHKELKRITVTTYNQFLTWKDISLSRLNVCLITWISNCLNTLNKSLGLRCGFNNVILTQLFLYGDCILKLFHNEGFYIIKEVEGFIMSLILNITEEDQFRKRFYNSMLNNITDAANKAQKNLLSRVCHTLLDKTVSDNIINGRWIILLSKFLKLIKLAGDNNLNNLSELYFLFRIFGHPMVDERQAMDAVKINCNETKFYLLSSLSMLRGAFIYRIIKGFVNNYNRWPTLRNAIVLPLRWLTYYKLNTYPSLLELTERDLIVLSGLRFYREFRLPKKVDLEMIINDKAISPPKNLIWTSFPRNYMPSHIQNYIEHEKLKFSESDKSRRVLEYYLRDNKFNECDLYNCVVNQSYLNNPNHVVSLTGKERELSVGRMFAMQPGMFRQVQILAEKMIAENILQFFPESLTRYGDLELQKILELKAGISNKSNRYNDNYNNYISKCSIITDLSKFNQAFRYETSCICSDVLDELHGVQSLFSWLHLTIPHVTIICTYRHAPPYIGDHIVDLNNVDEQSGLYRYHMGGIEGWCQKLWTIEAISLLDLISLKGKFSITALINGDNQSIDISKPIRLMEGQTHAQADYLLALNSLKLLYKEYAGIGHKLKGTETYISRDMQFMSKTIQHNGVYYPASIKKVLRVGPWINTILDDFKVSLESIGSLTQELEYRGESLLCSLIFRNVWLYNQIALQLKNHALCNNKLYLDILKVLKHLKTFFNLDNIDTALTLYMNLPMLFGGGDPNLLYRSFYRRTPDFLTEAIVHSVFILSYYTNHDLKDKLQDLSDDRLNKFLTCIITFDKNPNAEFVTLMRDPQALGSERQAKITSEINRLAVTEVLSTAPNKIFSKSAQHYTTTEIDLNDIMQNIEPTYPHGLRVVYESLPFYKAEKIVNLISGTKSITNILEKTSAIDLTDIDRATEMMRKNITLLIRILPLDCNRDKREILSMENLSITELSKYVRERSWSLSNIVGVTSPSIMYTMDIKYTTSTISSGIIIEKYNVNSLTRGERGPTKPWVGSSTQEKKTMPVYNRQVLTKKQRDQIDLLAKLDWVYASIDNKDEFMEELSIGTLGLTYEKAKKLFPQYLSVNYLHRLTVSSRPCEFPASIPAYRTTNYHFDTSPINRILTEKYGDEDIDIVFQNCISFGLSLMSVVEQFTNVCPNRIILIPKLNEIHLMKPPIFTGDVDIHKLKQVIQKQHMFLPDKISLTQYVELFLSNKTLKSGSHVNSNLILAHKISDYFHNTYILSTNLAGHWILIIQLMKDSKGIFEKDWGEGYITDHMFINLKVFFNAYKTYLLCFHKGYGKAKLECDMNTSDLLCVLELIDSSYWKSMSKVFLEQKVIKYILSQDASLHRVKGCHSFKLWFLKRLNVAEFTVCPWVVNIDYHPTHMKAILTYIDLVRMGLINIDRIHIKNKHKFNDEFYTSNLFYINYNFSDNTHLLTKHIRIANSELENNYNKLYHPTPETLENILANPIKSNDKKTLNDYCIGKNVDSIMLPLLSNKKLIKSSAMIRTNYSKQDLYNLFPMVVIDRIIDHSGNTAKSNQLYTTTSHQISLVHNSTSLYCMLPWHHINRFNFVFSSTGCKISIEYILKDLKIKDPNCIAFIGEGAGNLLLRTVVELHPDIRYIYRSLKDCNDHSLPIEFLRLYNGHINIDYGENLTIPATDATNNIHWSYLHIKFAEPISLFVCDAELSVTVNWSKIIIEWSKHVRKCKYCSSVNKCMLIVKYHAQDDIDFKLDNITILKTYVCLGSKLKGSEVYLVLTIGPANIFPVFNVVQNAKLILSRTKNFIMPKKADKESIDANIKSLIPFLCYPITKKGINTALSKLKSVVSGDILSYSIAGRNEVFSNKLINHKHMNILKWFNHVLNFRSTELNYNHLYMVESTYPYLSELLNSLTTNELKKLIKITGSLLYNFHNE
minigenome construct comprising the L protein, M2-1, N, and P of RSV A2, sequence (P03421 whole entry, further chain): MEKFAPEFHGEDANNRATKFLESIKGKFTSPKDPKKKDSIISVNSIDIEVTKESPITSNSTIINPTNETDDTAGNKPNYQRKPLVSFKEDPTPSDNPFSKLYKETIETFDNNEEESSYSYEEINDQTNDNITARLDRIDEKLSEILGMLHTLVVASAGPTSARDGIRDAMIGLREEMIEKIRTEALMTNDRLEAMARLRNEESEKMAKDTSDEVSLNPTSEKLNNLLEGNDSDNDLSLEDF
human polymerase α, sequence (P09884 whole entry): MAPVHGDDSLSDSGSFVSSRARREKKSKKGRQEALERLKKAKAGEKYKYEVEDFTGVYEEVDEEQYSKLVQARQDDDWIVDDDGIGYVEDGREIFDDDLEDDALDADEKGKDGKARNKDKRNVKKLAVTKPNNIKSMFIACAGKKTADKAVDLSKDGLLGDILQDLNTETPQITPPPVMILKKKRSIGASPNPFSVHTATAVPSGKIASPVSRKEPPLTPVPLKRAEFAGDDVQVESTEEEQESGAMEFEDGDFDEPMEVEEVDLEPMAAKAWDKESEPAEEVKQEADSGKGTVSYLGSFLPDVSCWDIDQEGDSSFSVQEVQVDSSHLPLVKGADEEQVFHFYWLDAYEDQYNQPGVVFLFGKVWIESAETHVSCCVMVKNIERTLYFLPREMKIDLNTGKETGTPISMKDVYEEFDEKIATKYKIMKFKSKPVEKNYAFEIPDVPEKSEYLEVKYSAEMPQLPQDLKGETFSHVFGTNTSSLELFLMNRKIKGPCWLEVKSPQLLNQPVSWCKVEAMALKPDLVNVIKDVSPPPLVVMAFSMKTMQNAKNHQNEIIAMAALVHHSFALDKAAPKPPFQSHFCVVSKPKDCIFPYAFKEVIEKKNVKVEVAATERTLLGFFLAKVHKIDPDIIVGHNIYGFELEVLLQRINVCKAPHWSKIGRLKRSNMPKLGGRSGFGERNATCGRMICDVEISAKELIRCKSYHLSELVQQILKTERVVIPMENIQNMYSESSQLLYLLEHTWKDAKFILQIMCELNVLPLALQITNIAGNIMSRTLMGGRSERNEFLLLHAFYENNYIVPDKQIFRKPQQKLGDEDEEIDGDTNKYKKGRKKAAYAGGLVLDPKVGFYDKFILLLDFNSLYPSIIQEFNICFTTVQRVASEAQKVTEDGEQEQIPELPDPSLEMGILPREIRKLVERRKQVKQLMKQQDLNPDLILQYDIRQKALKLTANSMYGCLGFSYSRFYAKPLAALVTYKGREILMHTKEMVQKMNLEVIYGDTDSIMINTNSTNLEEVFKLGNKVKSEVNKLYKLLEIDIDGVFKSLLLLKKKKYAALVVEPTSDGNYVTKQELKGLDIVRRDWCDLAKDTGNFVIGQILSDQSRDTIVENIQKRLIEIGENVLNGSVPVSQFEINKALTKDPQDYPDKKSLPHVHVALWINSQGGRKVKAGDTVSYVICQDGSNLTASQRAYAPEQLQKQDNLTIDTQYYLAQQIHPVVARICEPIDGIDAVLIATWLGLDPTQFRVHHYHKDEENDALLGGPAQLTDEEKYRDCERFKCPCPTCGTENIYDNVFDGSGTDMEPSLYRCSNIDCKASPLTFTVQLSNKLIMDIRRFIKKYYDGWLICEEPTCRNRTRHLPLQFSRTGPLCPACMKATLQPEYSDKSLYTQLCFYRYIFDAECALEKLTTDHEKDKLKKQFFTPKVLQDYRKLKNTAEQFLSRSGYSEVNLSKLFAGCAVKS

With `Cc1cnc(N2CC3(CCOCC3)C2)c(C(=O)Nc2ccc(C(=O)N3CCc4cc(C(=O)Nc5c(C)cccc5F)sc4-c4ccccc43)cc2)c1` [PC786, N-(2-fluoro-6-methylphenyl)-6-(4-(5-methyl-2-(7-oxa-2-azaspiro[3.5]nonan-2-yl)nicotinamido)benzoyl)-5,6-dihydro-4H-benzo[b]thieno[2,3-d]azepine-2-carboxamide], the IC50 – broadly, the concentration at which inhibition is half-maximal – in the series with RSVA 1211 [1] (setting [6]) is less than 0.09 nM; in the series on RSVB 1276 (setting [6]) it was 15.1 nM; in the series with RSVA 1211 [4] (read-out: CPE IC50), less than 0.09 nM; in the series with RSV A Long (human respiratory syncytial virus, HEp-2, plaque reduction, applied 2 h before infection) it was less than 0.42 nM; with RSVA 492 (read-out: CPE IC50), 0.42 nM; in the series with RSV A 1998/3-2 it was 2.5 nM. For the same compound, the IC50 amounted to 3.2 nM in the series with RSV A 2001/3-12 and 1.3 nM in the series with RSV A USU\v1225. The IC90 – broadly, the point of the concentration-response curve where the effect stands at 90% – in the series on RSVA 1211 [1] (setting [7]) was 1.05 nM; in the series on RSVB 1276 (setting [7]) it was 22.5 nM; in the series with RSVA 1211 [4] (read-out: CPE IC90), 1.96 nM; in the series on RSVA 492 (read-out: CPE IC90), 0.57 nM; in [5] (luciferase, HEp-2, wild-type L protein), 1.54 nM. Besides, the CC50 (in general, the concentration that lowers cell viability or growth by half) at 3 days in series [2] was more than 14000 nM. Also, the “concentration above which no or little G, N, P, M, M2-1, and F1 protein bands were visible” value in [3] was “greater than 14 nM”. For the same compound, on human polymerase α, the “inhibitory effects on human polymerase α” value was “no measurable inhibitory effects”. The “viral replication in apical wash (plaque assay)” value in the series on RSV A2 (5.6 nM apical once daily day 0 to day 6) is listed as “did not peak until day 5”; with RSV A2 (28 nM apical once daily day 0 to day 6), “viral replication was not detected until day 4”. The “viral quantity in apical wash (plaque assay)” value in the series on RSV A2 (140 nM apical once daily day 0 to day 6) is given as “below detectable limits”. Besides, the “IC90 or IC95” value in the series with RSV A Long (HEp-2) is less than 0.42 nM. For the same compound, the inhibition (commonly the drop in the measured response relative to a control, in per cent) at 0.14 µM in [5] (HEp-2, at 140 nM, read-out: maximum inhibition achieved) was 100%.
